Laboratory results taken from patent publication US8652999B1, “Herbicidal compositions comprising 4-amino-3-chloro-5-fluoro-6-(4-chloro-2-fluoro-3-methoxyphenyl)pyridine-2-carboxylic acid or a derivative thereof and a sulfonylaminocarbonyltriazolinone” (Dow AgroSciences, LLC., priority 2012, dated 2014).

What was measured:
Assay type in all cases: in vivo
Veronica persica (VERPE) = experiment: Postemergence herbicidal activity, greenhouse, VERPE; conditions: foliar, 20-22 days
Method: (§1) Evaluation of Postemergence Herbicidal Activity of Mixtures in Cereal Crops
(§2) Seeds of the desired test plant species were planted in Sun Gro MetroMix® 306 planting mixture, which typically has a pH of 6.0 to 6.8 and an organic matter content of about 30 percent, in plastic pots with a surface area of 103.2 square centimeters (cm^2). […] The plants were grown for 7-36 days in a greenhouse with an approximate 14 hour photoperiod which was maintained at about 18° C. during the day and 17° C. during the night. Nutrients and water were added on a regular basis and supplemental lighting was provided with overhead metal halide 1000-Watt lamps as necessary. The plants were employed for testing when they reached the second or third true leaf stage.
(§3) Treatments consisted of the benzyl ester of the compound of formula (I) (Compound A as listed in Tables 1-8) and a second cereal herbicide alone and in combination. […] The concentrated stock solutions were diluted to 1.5 mg ai/mL with the addition of 2 volumes of an aqueous mixture containing acetone, water, isopropyl alcohol, DMSO, Agri-dex crop oil concentrate, and Triton® X-77 surfactant in a 64.7:26.0:6.7:2.0:0.7:0.01 v/v ratio. A dilution solution was prepared by mixing 1 volume of 97:3 v/v acetone/DMSO and 2 volumes of an aqueous mixture containing acetone, water, isopropyl alcohol, DMSO, Agri-dex crop oil concentrate, and Triton® X-77 surfactant in a 64.7:26.0:6.7:2.0:0.7:0.01 v/v ratio. Compound requirements are based upon a 12 mL application volume at a rate of 187 liters per hectare (L/ha). […] Formulated compounds were applied to the plant material with an overhead Mandel track sprayer equipped with 8002E nozzles calibrated to deliver 187 L/ha over an application area of 0.503 square meters (m^2) at a spray height of 18 inches (43 cm) above average plant canopy. Control plants were sprayed in the same manner with the solvent blank.
(§4) The treated plants and control plants were placed in a greenhouse as described above and watered by sub-irrigation to prevent wash-off of the test compounds. After 20-22 days, the condition of the test plants as compared with that of the control plants was determined visually and scored on a scale of 0 to 100 percent where 0 corresponds to no injury and 100 corresponds to complete kill.
(§5) Colby's equation was used to determine the herbicidal effects expected from the mixtures (Colby, S. R. 1967. Calculation of the synergistic and antagonistic response of herbicide combinations. Weeds 15:20-22.). Specifically, the following equation was used to calculate the expected activity of mixtures containing two active ingredients, A and B: Expected=A+B−(A×B/100) • A=observed efficacy of active ingredient A at the same concentration as used in the mixture. • B=observed efficacy of active ingredient B at the same concentration as used in the mixture.

Stellaria media (STEME) = experiment: Postemergence herbicidal activity, greenhouse, STEME; conditions: foliar, 20-22 days
Method: as §1, §2, §3, §4, §5

[1] = system: Matricaria chamomila (MATCH); experiment: Postemergence herbicidal activity, greenhouse, MATCH; conditions: foliar, 20-22 days
Method: as §1, §2, §3, §4, §5

Cirsium arvense (CIRAR) = experiment: Postemergence herbicidal activity, greenhouse, CIRAR; conditions: foliar, 20-22 days
Method: as §1, §2, §3, §4, §5

[2] = system: Alopecurus myosuroides (ALOMY); experiment: Postemergence herbicidal activity, greenhouse, ALOMY; conditions: foliar, 20-22 days
Method: as §1, §2, §3, §4, §5

[3] = system: Apera spica-venti (APESV); experiment: Postemergence herbicidal activity, greenhouse, APESV; conditions: foliar, 20-22 days
Method: as §1, §2, §3, §4, §5

[4] = system: Lolium multiflorum subsp. gaudini (LOLMG); experiment: Postemergence herbicidal activity, greenhouse, LOLMG; conditions: foliar, 20-22 days
Method: as §1, §2, §3, §4, §5

[5] = system: Triticum aestivum (TRZAW); experiment: Postemergence herbicidal activity, greenhouse, TRZAW; conditions: foliar, 20-22 days
Method: as §1, §2, §3, §4, §5

Papaver rhoeas (PAPRH) = experiment: Postemergence herbicidal activity, greenhouse, PAPRH; conditions: foliar, 20-22 days
Method: as §1, §2, §3, §4, §5

Salsola tragus (SASKR) = experiment: Postemergence herbicidal activity, greenhouse, SASKR; conditions: foliar, 20-22 days
Method: as §1, §2, §3, §4, §5

Viola tricolor (VIOTR) = experiment: Postemergence herbicidal activity, greenhouse, VIOTR; conditions: foliar, 20-22 days
Method: as §1, §2, §3, §4, §5

Lamium purpureum (LAMPU) = experiment: Postemergence herbicidal activity, greenhouse, LAMPU; conditions: Propoxycarbazone-Na 15 g/ha; foliar; 20-22 days
Method: as §1, §2, §3, §4
(§6) Colby's equation was used to determine the herbicidal effects expected from the mixtures (Colby, S. R. 1967. Calculation of the synergistic and antagonistic response of herbicide combinations. Weeds 15:20-22.). […]

Setaria viridis (SETVI) = experiment: Postemergence herbicidal activity, greenhouse, SETVI; conditions: foliar, 20-22 days
Method: as §1, §2, §3, §4, §6

Kochia scoparia (KCHSC) = experiment: Postemergence herbicidal activity, greenhouse, KCHSC; conditions: foliar, 20-22 days
Method: as §1, §2, §3, §4, §5

[6] = Propoxycarbazone-Na 7.5 g ai/ha

With `COc1nn(C(=O)NS(=O)(=O)c2ccccc2OC(F)(F)F)c(=O)n1C` [Flucarbazone-Na, 4,5-dihydro-3-methoxy-4-methyl-5-oxo-N-[[2-(trifluoromethoxy)phenyl]sulfonyl]-1H-1,2,4-triazole-1-carboxamide] as the compound, how does the “VERPE Obs” value (Veronica persica (VERPE); Flucarbazone-Na 3.75 g ai/ha) read?
The value was 0%.

And the “VERPE Obs” value (Veronica persica (VERPE); Flucarbazone-Na 7.5 g ai/ha)?
The value was 0%.

And the “VERPE Obs” value (Veronica persica (VERPE); Flucarbazone-Na 7.5 g/ha)?
Its value is 0%.

What about the “STEME Obs” value (Stellaria media (STEME); Flucarbazone-Na 3.75 g ai/ha) of the same compound?
The value was 3%.

And the “STEME Obs” value (Stellaria media (STEME); Flucarbazone-Na 7.5 g ai/ha)?
The value was 7%.

And the “STEME Obs” value (Stellaria media (STEME); Flucarbazone-Na 7.5 g/ha)?
The value was 60%.

And the “MATCH Obs” value ([1]; Flucarbazone-Na 3.75 g ai/ha)?
Its value is 10%.

What about the “MATCH Obs” value ([1]; Flucarbazone-Na 7.5 g ai/ha) of the same compound?
The value was 10%.

And the “MATCH Obs” value ([1]; Flucarbazone-Na 7.5 g/ha)?
Its value is 30%.

What about the “CIRAR Obs” value (Cirsium arvense (CIRAR); Flucarbazone-Na 7.5 g/ha) of the same compound?
Its value is 50%.

And the “ALOMY Obs” value ([2]; Flucarbazone-Na 3.75 g/ha)?
The value was 8%.

What about the “ALOMY Obs” value ([2]; Flucarbazone-Na 7.5 g/ha) of the same compound?
The value was 17%.

And the “APESV Obs” value ([3]; Flucarbazone-Na 3.75 g/ha)?
Its value is 33%.

And the “APESV Obs” value ([3]; Flucarbazone-Na 7.5 g/ha)?
Its value is 75%.

And the “LOLMG Obs” value ([4]; Flucarbazone-Na 3.75 g/ha)?
Its value is 0%.

And the “LOLMG Obs” value ([4]; Flucarbazone-Na 7.5 g/ha)?
Its value is 0%.

What about the “TRZAW Obs” value ([5]; Flucarbazone-Na 3.75 g ai/ha) of the same compound?
Its value is 2%.

And the “TRZAW Obs” value ([5]; Flucarbazone-Na 7.5 g ai/ha)?
The value was 7%.

And the “PAPRH Obs” value (Papaver rhoeas (PAPRH); Flucarbazone-Na 3.75 g ai/ha)?
Its value is 0%.

And the “PAPRH Obs” value (Papaver rhoeas (PAPRH); Flucarbazone-Na 7.5 g ai/ha)?
The value was 0%.

And the “SASKR Obs” value (Salsola tragus (SASKR); Flucarbazone-Na 3.75 g ai/ha)?
The value was 10%.

What about the “SASKR Obs” value (Salsola tragus (SASKR); Flucarbazone-Na 7.5 g ai/ha) of the same compound?
The value was 7%.

What about the “VIOTR Obs” value (Viola tricolor (VIOTR); Flucarbazone-Na 3.75 g ai/ha) of the same compound?
Its value is 7%.

What about the “VIOTR Obs” value (Viola tricolor (VIOTR); Flucarbazone-Na 7.5 g ai/ha) of the same compound?
Its value is 7%.

Which results are given for `CCCOc1nn(C(=O)NS(=O)(=O)c2ccccc2C(=O)OC)c(=O)n1C` [Propoxycarbazone-Na, methyl 2-[[[(4,5-dihydro-4-methyl-5-oxo-3-propoxy-1H-1,2,4-triazol-1-yl)-carbonyl]amino]sulfonyl]benzoate]?
STEME Obs (Stellaria media (STEME); [6]): 12%; STEME Obs (Stellaria media (STEME); Propoxycarbazone-Na 15 g ai/ha): 10%; STEME Obs (Stellaria media (STEME); Propoxycarbazone-Na 15 g/ha): 45%; MATCH Obs [1, 6]: 13%; MATCH Obs ([1]; Propoxycarbazone-Na 15 g ai/ha): 20%; CIRAR Obs (Cirsium arvense (CIRAR); Propoxycarbazone-Na 15 g/ha): 65%; ALOMY Obs ([2]; Propoxycarbazone-Na 7.5 g ha): 10%; ALOMY Obs ([2]; Propoxycarbazone-Na 15 g ha): 43%; APESV Obs ([3]; Propoxycarbazone-Na 7.5 g ha): 17%; APESV Obs ([3]; Propoxycarbazone-Na 15 g ha): 23%; LOLMG Obs ([4]; Propoxycarbazone-Na 7.5 g ha): 3%; LOLMG Obs ([4]; Propoxycarbazone-Na 15 g ha): 20%; TRZAW Obs [5, 6]: 8%; TRZAW Obs ([5]; Propoxycarbazone-Na 15 g ai/ha): 5%; PAPRH Obs (Papaver rhoeas (PAPRH); [6]): 18%; PAPRH Obs (Papaver rhoeas (PAPRH); Propoxycarbazone-Na 15 g ai/ha): 23%; VIOTR Obs (Viola tricolor (VIOTR); [6]): 13%; VIOTR Obs (Viola tricolor (VIOTR); Propoxycarbazone-Na 15 g ai/ha): 23%; LAMPU Obs (Lamium purpureum (LAMPU)): 0%; SETVI Obs (Setaria viridis (SETVI); Propoxycarbazone-Na 7.5 g ha): 0%; SETVI Obs (Setaria viridis (SETVI); Propoxycarbazone-Na 15 g ha): 0%; KCHSC Obs (Kochia scoparia (KCHSC); [6]): 13%; KCHSC Obs (Kochia scoparia (KCHSC); Propoxycarbazone-Na 15 g ai/ha): 25%
